Test results reported in paper PMC7618036, “An oral heme oxygenase inhibitor targets immunosuppressive perivascular macrophages in preclinical models of cancer” (Science translational medicine, 2025).

Columns and labels:
[1] = design: method as in PMID 2714739; conditions: cited from earlier work
[2] = test system: CD8^+ T-cells in MMTV-PyMT tumors; assay: Flow cytometry of the TME of MMTV-PyMT tumors after 36 h treatment; type: in vivo, mouse; conditions: single-agent therapy
Procedure: At 36 h post treatment initiation of treatment mice were sacrificed and tumors were harvested and analyzed. (A) Schematic representing the dosing strategy. (B) The fold change of tumor growth over 36 h post initiation of treatment. (C-G) Tumors were enzyme-digested to release single cells which were analyzed for their live (7AAD^-) stromal cell composition using flow cytometry (n=5 tumors per group) (C) and CD8^+ T-cells (D). Gating strategy (left panel) and quantitation of CD8^+ T-cell subsets based on CD62L and CD44 expressions (right panel; TCM; T central memory cells, TEM; T effector memory cells, Teff; T effectors cells) (E), and the ability of the tumoral CD8^+ T-cells to secrete IFNγ post ex vivo exposure to PMA/ionomycin treatment (F). […] Scale bar is 100 µm and white arrows indicate infiltrating CD8^+ T-cells. […] Image in panel (A) was created using BioRender. Bar charts show the mean, error bars SD, and the dots show individual data points from individual tumors and mice. Gemc.; gemcitabine. * P<0.05, ** P<0.01, *** P<0.001.
MN-MCA1 sarcoma cells were orthotopically implanted into syngeneic C57Bl/6 mice for tumors. A total of 2.5 x 10^5 cells in 100 μL RPMI were injected subcutaneously into female mice. […] When tumors became palpable, volumes were measured every 2-4 days using digital caliper measurements of the long (L) and short (S) dimensions of the tumor. […]

MMTV-PyMT mice = assay: Toxicity evaluation of MMTV-PyMT mice after 21 days of treatment; type: in vivo, mouse; conditions: KCL-HO-1i p.o. and/or gemcitabine i.p.
Procedure: (D-G) The MMTV-PyMT mice in (B) were evaluated for evidence of toxicity, including weight change from treatment initiation (D), end of treatment (day 21) plasma ratio of AST:ALT enzymes (E), blood circulating immune cells assessed using flow cytometry (F) and pathology assessment of inflammatory cell infiltrate in the lungs alongside an additional cohort or WT non-tumor bearing mice given dual treatment for 21 days and then assessed at treatment cessation or 30 days after treatment cessation (G). Image in panel (A) was created using BioRender. Bar charts show the mean, error bars SD, and the dots show individual data points from individual tumors and mice. Line charts display the mean and SEM. Gemc.; gemcitabine. * P<0.05, ** P<0.01.
Tissue sections (3µm) were cut from FFPE tissues from the brain, lung, heart, kidney, and liver of treated animals and mounted onto Plus^+ Frost slides (Solmedia). […] Tissue sections were initially examined unblinded and then re-evaluated blinded to confirm the significant findings ([77]). Findings in the tissue were scored using a non-linear semiquantitative grading system from 0 to 5 where 0 = no significant change and 5 = whole organ or tissue affected ([78]). Where grading was not appropriate, findings were scored ‘present’ (P) if seen. In addition, an approximate number of lung metastases was recorded in parentheses after P if present ([78]). […]

Row | Molecule | oral bioavailability [1] | serum half-life [1] | abundance of CD8^+ T-cells in the TME [2] | immune cell composition of the blood (MMTV-PyMT mice)
1 | Sn (IV) mesoporphyrin IX dichloride [SnMP] | not orally bioavailable | short | – | –
2 | Nc1ccn([C@@H]2O[C@H](CO)[C@@H](O)C2(F)F)c(=O)n1 [gemcitabine] | – | – | increase in the abundance of CD8^+ T-cells | unaffected
